Measured values: paper PMC12621175, “Scaffold Fusion and SAR Transfer with a Chemical Language Model Generates Novel Liver X Receptor Modulators” (Journal of Medicinal Chemistry, 2025)
“Also recorded” adds a separate entry of the source.

How the values were obtained:
[1] = molecular target: T1, RORα (NR1F1) (Homo sapiens, UniProt P35398); test: Gal4-RORα hybrid reporter gene assay (off-target profiling); format: cell-based
T1 construct: coding for the hinge region, and LBD of the canonical isoform of the respective nuclear receptor; expressed in transfected cells; host or cells: HEK293T
T1 sequence (P35398 272-510 limits assumed): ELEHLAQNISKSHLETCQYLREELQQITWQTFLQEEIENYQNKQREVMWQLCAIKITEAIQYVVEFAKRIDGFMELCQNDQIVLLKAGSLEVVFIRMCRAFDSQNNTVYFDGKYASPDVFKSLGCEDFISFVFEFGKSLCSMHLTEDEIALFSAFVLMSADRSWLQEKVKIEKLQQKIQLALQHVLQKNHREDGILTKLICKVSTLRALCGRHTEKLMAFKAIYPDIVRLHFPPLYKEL
Description: For the hybrid reporter gene assays, the previously reported Gal4-fusion receptor plasmids pFA-CMV-hRORα-LBD, pFA-CMV-hRORβ-LBD, pFA-CMV-hRORγ-LBD, pFA-CMV-hLXRα-LBD, pFA-CMV-hLXRβ-LBD, pFA-CMV-hFXR-LBD, pFA-CMV-hPXR-LBD, and pFA-CMV-hRXRα-LBD, coding for the hinge region, and LBD of the canonical isoform of the respective nuclear receptor were used. pFR-Luc (Stratagene) was used as the reporter plasmid, and pRL-SV40 (Promega) was used in all assays for the normalization of transfection efficiency and cell growth. pECE-SV40-Gal4-VP16 was a gift from Lea Sistonen (Addgene plasmid #71728). The LXR-responsive reporter ABCA1-pGL3 was used for the full-length reporter gene assay.
The day before transfection, HEK293T cells were seeded in 96-well plates (4 × 10^4 cells/well). Before transfection, the medium was changed to Opti-MEM without any supplements. […] Luminescence was measured with a Spark 10 M luminometer (Tecan Deutschland GmbH). […] EC50/IC50 values and the standard errors thereof were calculated with the mean fold activation values by OriginPro, Version 2025 (OriginLab Corporation, Northampton, MA, USA), fitting a dose–response curve with a variable Hill slope (Levenberg–Marquardt algorithm). […]

[2] = tested on: ABCA1; test: qPCR of LXR-regulated mRNA expression in HepG2: ABCA1; format: cell-based, human; conditions: HepG2, 24 h
[3] = metabolic stability assay in rat liver microsomes; format: in vitro ADME; conditions: 10 μM
Procedure: The dissolved test compound (5 μL, final concentration 10 μM) was preincubated at 37 °C in 432 μL of phosphate buffer (0.1 M, pH 7.4) together with a 50 μL NADPH regenerating system (30 mM glucose-6-phosphate, 4 U/mL glucose-6-phosphate dehydrogenase, 10 mM NADP, and 30 mM MgCl2). After 5 min, the reaction was started by the addition of 13 μL of microsome mix from the liver of Sprague–Dawley rats (Invitrogen; 20 mg protein/mL in 0.1 M phosphate buffer) in a shaking water bath at 37 °C. The reaction was stopped by the addition of 500 μL of ice-cold methanol at 0, 15, 30, and 60 min. The samples were centrifuged at 5000 g for 5 min at 4 °C. The supernatants were analyzed, and the test compound was quantified by HPLC: The composition of the mobile phase is adapted tot the test compound in a range of 40-90% acetonitrile and 10-60% water (0.1% formic acid); flow rate: 1 mL/min; stationary phase: PurospherⓇ STAR, RP18, 5 μm, 125 × 4, precolumn: PurospherⓇ STAR, RP18, 5 μm, 4 × 4; detection wavelength: 254 and 280 nm; injection volume: 50 μL. […] The amounts of the test compound were quantified by an external calibration curve. Data are expressed as the mean ± SEM remaining compound from three independent experiments.

[4] = tested on: HepG2 cells; test: lipid accumulation assay (Oil Red O staining); format: cell-based; conditions: 72 h
Procedure: HepG2 cells were seeded in collagen-coated 96-well plates at a density of 10^4 cells per well and incubated for 24 h. For the lipolytic mode, the cells were pretreated for additional 24 h with 66.7 μM oleic acid and 33.3 μM palmitic acid in culture medium with 1% bovine serum albumin (BSA). The cells were then treated with DMSO (0.1%) alone or in combination with test compounds in the culture medium. After 72 h, the cells were washed with PBS (2 × 50 μL) and fixed with 10% formalin solution (50 μL) for 15 min. After removal of the fixative, the cells were washed with H2O (2 × 50 μL), followed by 50 μL of 60% iPrOH and incubated with 50 μL Oil Red O solution (0.3% in 60% iPrOH) for 10 min to stain neutral lipids. The cells were washed quickly with 50 μL of 60% iPrOH and 2 × 50 μL of PBS. Microscopic images were taken using a 40x objective on a BZ-X810 microscope (KEYENCE, Frankfurt, Germany). Images were analyzed using ImageJ software (v1.54) according to a literature method.

[5] = tested on: HepG2 cells; test: resazurin-based proliferation assay, HepG2; format: cell-based
Procedure: HepG2 or HEK293T cells were seeded in 96-well plates (4 × 10^4 cells per well). […] After 4, 14, and 24 h, the medium was aspirated, and the cells were incubated with 100 μM resazurin solution in Opti-MEM (prepared from a 0.15 mg/mL resazurin stock in DPBS) for 60 min. The metabolic activity was assessed by conversion of resazurin to resorufin, which was quantified by measuring absorbance at 570 nm and a reference wavelength of 600 nm. The cell count was calculated from a calibration curve with 0–10^5 cells per well in steps of 2 × 10^4.

| Compound | RORα activity ([1]; off-target profiling, compared with T0901317) | ABCA1 mRNA expression ([2]; 3 μM) | metabolic stability [3] | lipid accumulation (lipogenesis) ([4]; 10 μM, compared to T0901317 10 μM) | antiproliferative effect ([5]; 10 μM) | RORα activity ([1]; 30 μM) | ABCA1 mRNA expression ([2]; 30 μM) | effect on T0901317-induced lipogenesis ([4]; 30 μM with T0901317 10 μM) | lipid accumulation (lipogenesis) ([4]; 30 μM) | antiproliferative effect ([5]; 30 μM) |
| --- | --- | --- | --- | --- | --- | --- | --- | --- | --- | --- |
| CCN(C(=O)c1ccccc1)c1ccc(C(O)(C(F)(F)F)C(F)(F)F)cc1 [Compound 1, N-Ethyl-N-(4-[1,1,1,3,3,3-hexafluoro-2-hydroxypropan-2-yl]phenyl)benzamide] | no activity; also recorded: did not affect | induced | > 60 min | formation of less lipids in HepG2 cells than the structurally related full agonist T0901317; also recorded: induced lipogenesis after 72 h less efficiently | did not inhibit the proliferation | – | – | – | – | – |
| CS(=O)(=O)c1cccc(-c2ccc(CN(Cc3cccc(C(F)(F)F)c3Cl)CC(c3ccccc3)c3ccccc3)cc2)c1 [Compound 3, N-(2-Chloro-3-[trifluoromethyl]benzyl)-N-([3′-{methylsulfonyl}-{1,1′-biphenyl}-4-yl]methyl)-2,2-diphenylethan-1-amine] | – | – | > 60 min | – | – | only activated RORα with low efficacy; also recorded: weak RORα activation | did not significantly alter the expression; also recorded: only a weak impact | significantly attenuated T0901317-induced lipogenesis; also recorded: mitigated T090-induced steatosis | did not induce lipid accumulation; also recorded: did not stimulate lipid accumulation | did not inhibit the proliferation |
